pIC50, pKi: −log10 of the molar value.
Assays:
[1] = molecular target: T1, Amine oxidase [flavin-containing] A (Homo sapiens, UniProt P21397); assay: Reversible inhibition of recombinant human MAO-A assessed as residual activity at 1.1 uM using kynuramine as substrate preincubated for 30 mins followed by dialysis for 6 hrs by spectrophotometric method relative to control; conditions: read-out: Activity
T1 sequence (P21397 whole entry): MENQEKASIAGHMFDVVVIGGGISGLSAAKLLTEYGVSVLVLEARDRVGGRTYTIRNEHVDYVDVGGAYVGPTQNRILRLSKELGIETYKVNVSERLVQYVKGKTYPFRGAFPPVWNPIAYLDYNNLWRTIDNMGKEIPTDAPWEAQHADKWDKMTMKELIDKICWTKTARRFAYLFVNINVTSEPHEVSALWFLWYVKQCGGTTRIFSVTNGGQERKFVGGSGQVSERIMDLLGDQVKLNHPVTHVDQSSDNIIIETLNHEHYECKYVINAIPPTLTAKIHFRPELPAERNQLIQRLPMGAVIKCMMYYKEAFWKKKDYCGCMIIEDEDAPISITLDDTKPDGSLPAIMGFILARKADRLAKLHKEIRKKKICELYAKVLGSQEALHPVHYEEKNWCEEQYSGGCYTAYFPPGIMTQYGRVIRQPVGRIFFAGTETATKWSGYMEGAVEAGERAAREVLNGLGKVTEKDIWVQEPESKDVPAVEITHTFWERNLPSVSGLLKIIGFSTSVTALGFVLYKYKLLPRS

[2] = molecular target: T1, Amine oxidase [flavin-containing] A; assay: Inhibition of recombinant human MAO-A assessed as residual activity at 1.1 uM using kynuramine as substrate after 30 mins by spectrophotometric method relative to control; conditions: 0.5 h, read-out: Activity
[3] = molecular target: T2, Amine oxidase [flavin-containing] B (Homo sapiens, UniProt P27338); assay: Inhibition of recombinant human MAO-B assessed as residual activity at 20 uM using benzylamine as substrate incubated for 30 mins by spectrophotometric method relative to control; conditions: 0.5 h, read-out: Activity
T2 sequence (P27338 whole entry): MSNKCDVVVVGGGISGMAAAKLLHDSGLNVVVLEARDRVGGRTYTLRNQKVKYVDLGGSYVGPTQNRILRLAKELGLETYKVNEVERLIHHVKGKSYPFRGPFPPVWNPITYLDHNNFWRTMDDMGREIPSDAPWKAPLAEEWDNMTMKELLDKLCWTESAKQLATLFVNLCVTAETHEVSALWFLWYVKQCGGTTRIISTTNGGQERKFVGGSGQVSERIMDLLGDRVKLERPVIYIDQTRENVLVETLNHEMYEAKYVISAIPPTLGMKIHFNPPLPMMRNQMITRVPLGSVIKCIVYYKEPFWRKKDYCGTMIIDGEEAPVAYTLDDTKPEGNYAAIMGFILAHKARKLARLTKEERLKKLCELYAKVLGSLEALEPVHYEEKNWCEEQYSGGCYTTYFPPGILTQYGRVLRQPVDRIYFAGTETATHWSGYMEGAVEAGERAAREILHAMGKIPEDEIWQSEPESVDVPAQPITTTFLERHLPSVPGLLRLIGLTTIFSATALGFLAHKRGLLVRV

[4] = molecular target: T1, Amine oxidase [flavin-containing] A; assay: Inhibition of recombinant human MAO-A using kynuramine as substrate by spectrophotometric method; conditions: TDE = time-dependent effect
[5] = molecular target: T1, Amine oxidase [flavin-containing] A; assay: Competitive inhibition of recombinant human MAO-A using kynuramine as substrate by Lineweaver-Burk plot analysis
[6] = molecular target: T1, Amine oxidase [flavin-containing] A; assay: Inhibition of recombinant human MAO-A using kynuramine as substrate incubated for 20 mins by spectrophotometric method
[7] = molecular target: T1, Amine oxidase [flavin-containing] A; assay: Inhibition of recombinant human MAO-A assessed as residual activity at 20 uM using kynuramine as substrate incubated for 20 mins by spectrophotometric method relative to control; conditions: read-out: Activity
Homo sapiens = organism: Homo sapiens; assay: Selectivity index, ratio of IC50 for recombinant human MAO-B to IC50 for recombinant human MAO-A
[8] = molecular target: T2, Amine oxidase [flavin-containing] B; assay: Inhibition of recombinant human MAO-B using benzylamine as substrate incubated for 30 mins by spectrophotometric method
[9] = molecular target: T1, Amine oxidase [flavin-containing] A; assay: Inhibition of recombinant human MAO-A expressed in baculovirus infected insect cells using aminoproplyether of luciferin methyl ester as substrate after 90 mins by chemiluminescence assay

Row | SMILES | activity at 20 µM [3] [%] | pIC50 [6] | activity at 20 µM [7] [%] | pIC50 [8] | other results
1 | C#CCN(C)CCCOc1ccc(Cl)cc1Cl [CLORGILINE] |  |  |  |  | activity at 1.1 µM [1]: 18.3%; activity at 1.1 µM [2]: 17.3%
2 | Cc1cccc(N2CC(CO)OC2=O)c1 (stereo unspecified) [TOLOXATONE] |  |  |  |  | activity at 1.1 µM [1]: 75.4%; activity at 1.1 µM [2]: 30.7%
3 | COc1ccc2c(c[n+](C)c3c4cc5c(cc4ccc23)OCO5)c1OC [CHELERYTHRINE] | 94.3 | 6.26 | 28.3 | < 4.70 | activity at 1.1 µM [1]: 75%; inhibition (INH) [4]: Tde; pKi [5]: 6.66; activity at 1.1 µM [2]: 28.5%; Ratio IC50 (Homo sapiens): > 36.4
4 | COc1cc2c(cc1OC)[C@@H]1Cc3ccc(O)c(OC)c3CN1CC2 | 92.8 | < 4.70 | 85.6 | < 4.70 | 
5 | COc1cc2c(cc1OC)[C@@H]1[C@H](C)c3ccc(OC)c(OC)c3CN1CC2 | 54.7 | < 4.70 | 79.5 | 4.62 | 
6 | COc1cc2c(cc1O)[C@H]1Cc3ccc(OC)c(OC)c3CN1CC2 | 91.4 | < 4.70 | 93.4 | < 4.70 | 
7 | COc1ccc(-c2cc(=O)c3c(O)cc(O)cc3o2)cc1 |  |  |  |  | Ratio IC50 (Homo sapiens): 0.89
8 | O=C1/C(=C/c2ccc(O)cc2)Oc2cc(O)ccc21 |  |  |  |  | Ratio IC50 (Homo sapiens): 9.4
9 | CN1Cc2c(ccc3c2OCO3)[C@@]2(C)[C@@H](O)Cc3cc4c(cc3[C@@H]12)OCO4 | 87.6 | < 4.70 | 87.9 | < 4.70 | 
10 | COc1cc2c(cc1OC)-c1c(OC)c(OC)cc3ccnc(c13)C2=O [OXOGLAUCINE] | 64.9 | < 4.70 | 89.7 | < 4.70 | 
11 | COc1cc(-c2[o+]c3cc(O)cc(O)c3cc2O)cc(OC)c1O [MALVIDIN CHLORIDE] |  |  |  |  | pIC50 [9]: 4.66

Source: ChEMBL document CHEMBL4118277, “Selective inhibition of monoamine oxidase A by chelerythrine, an isoquinoline alkaloid” (Bioorg Med Chem Lett, 2018)
